Here are results for 8 molecules from article PMC12592502, “Unraveling the mechanisms behind the enhanced efficacy of β-lactam-based sideromycins” (Communications Biology, 2025).

In brackets after ≈: the same amount, converted by molar mass. Where two headings read alike, the source gives them in different places. A value given as a limit tells only on which side of the number the result lay.

One data set relates to E. coli MC4100. Put plainly: MIC. Type of data set: cell-based, Escherichia coli. Conditions: MC4100, MHBCA. How it is done: (§1) All bacterial strains (see description and sources Table S1) were stored at −80 °C, and grown on tryptone soya agar (TSA) at 35 °C. The iron-deprived (ID)-MHBCA (cation-adjusted Muller-Hinton Broth, Becton Dickinson, Mississauga, ON, Canada) medium was prepared as reported by refs. [21],[50]. Briefly, MHBCA was treated with 10% Chelex® 50-100 mesh (Sigma) and stirred for 6 h at room temperature. The resin was removed by filtration. Divalent Ca^2+ (CaCl2), Mg^2+ (MgCl2), and Zn^2+(ZnSO4), were then added in the iron-depleted medium at 22, 12, and 1 μg/ml respectively. Finally, the pH was adjusted to 7.3, and the medium was sterilized with a 0.2-μm filter. Regular MHBCA (i.e., not treated with Chelex®) was used to compare the inhibitory activity of conjugates in iron-sufficient conditions.
(§2) Minimal inhibitory concentrations (MICs) were performed using a broth microdilution technique according to the Clinical and Laboratory Standards Institute (CLSI) guidelines. MICs were determined in MHBCA and in ID-MHBCA. To check the impact of β-lactamases, MICs in the presence of a β-lactamase inhibitor were also determined. The inhibitor was homogenized at 2X the final concentration and added to the bacterial inoculum just before distributing cells into the wells containing the drug dilutions. The final concentration of each inhibitor was 4 μg/mL for clavulanic acid (tested against K. pneumoniae) and 200 μg/mL for 3-aminophenylboronic acid (tested against P. aeruginosa and A. baumannii).

In the next data set the test system is E. coli ΔacrAB. Description: MIC, efflux pump mutant. Type of data set: cell-based, Escherichia coli. How it is done: as §2
Another data set concerns P. aeruginosa ATCC 27853. Description: MIC, broth microdilution (CLSI). Type of data set: cell-based, Pseudomonas aeruginosa. The conditions noted are these: MHBCA; for MIC in combination with PAβN (control antibiotics): + 25 µg/mL PAβN. How it is done:
as §1, §2
A general note: Dilution methods test growth across graded concentrations, often in twofold steps.

Data set [1] concerns P. aeruginosa 1625 ΔmexAB-oprM, ΔmexEF-oprN. Description: MIC, efflux pump mutant. The conditions noted are these: Pseudomonas aeruginosa. Type of data set: cell-based, Pseudomonas aeruginosa. How it is done: as §2
Data set [2] has as its system P. aeruginosa 2302 MexAB, MexCD, MexEF upregulated. Put plainly: MIC, efflux pump overexpressing strain. The conditions noted are these: Pseudomonas aeruginosa. Type of data set: cell-based, Pseudomonas aeruginosa. How it is done:
as §2

A further data set deals with AmpC (PDC-5) (Pseudomonas aeruginosa, UniProt P24735, R79Q/T105A). Description: biochemical. Type of data set: biochemical, P. aeruginosa ATCC 27853. The conditions noted are these: n = 2. How it is done: The purification of AmpC from the culture supernatant obtained above was conducted as described in the Catwright and Waley protocol[52] using an Affi-gel 10 matrix (Bio-Rad, Hercules, CA, USA) loaded in a column (G-Bioscience, St-Louis, MO, USA). First, the resin was washed with cold deionized water. The resin was then collected and mixed with 20 mL of the 3-aminophenylboronic acid solution (1 M KHCO3 containing 2 g of 3-aminophenyl boronic acid and 2 g of sorbitol) at 4 °C for 1 h, and the pH was maintained at 8 with solid KHCO3. The mixture was loaded onto the column and washed with 10 column volumes of 1 M NaCl/0.5 M sorbitol (pH 7), followed by 10 column volumes of 0.5 M borate (pH 7), and then 10 column volumes of the loading buffer (20 mM triethanolamine HCl/0.5 M NaCl, pH 7). The sample was dialyzed in the loading buffer before being loaded onto the column. The column was washed with the loading buffer until no absorbance was measured at OD280. AmpC was eluted in fractions of 1 mL with 0.5 M borate/0.5 M NaCl pH 7. […] The purity was visualized on a 10% bis-acrylamide gel. Only pure fractions showing a single band at 40 kDa were pooled together and then dialyzed at 4 °C in a KP buffer 0.05 M pH 7 (see Fig. S2). The protein concentration was determined with a Bradford protein reagent (Bio-Rad).
(§3) Enzyme concentrations were 20 nM for AmpC and SHV-1, and 50 nM for OXA-98. Quartz cuvette (FireflySci Inc., Northport, NY) with 1 cm length path and 2 mm inside width was used with an Ultrospec 2100 Pro (Biochrom, Harvard Bioscience Inc., USA) to acquire the kinetic measures. […] The following extinction coefficients (Δε) and wavelengths (λ) were used:
(§4) The steady-state parameters (Km and Kcat) were determined by plotting the initial velocity against substrate concentrations (Michaelis–Menten curve). The Kcat was measured using the Vmax (μM/sec) divided by the total enzyme concentration and the catalytic efficiency was further calculated (Kcat/Km). SHV-1 parameters were determined with three Michaelis–Menten curves of at least seven substrate concentrations, while OXA-98 and AmpC were duplicates of curves of at least seven substrate concentrations. […] Initial velocities were measured at room temperature (25 °C). The Vmax and Km were calculated using least squares fit regression in GraphPad version 10.2.2. Ki was measured using a derivative of IC50 with an adaptation of the Cheng–Prusoff equation[55]. […] The corrected Ki was calculated using this formula: Kicorrected=Ki(observed)/1+S/KmNCF

Another data set relates to A. baumannii ATCC 19606. Put plainly: MIC, broth microdilution (CLSI). Type of data set: cell-based, Acinetobacter baumannii. Conditions: MHBCA. How it is done: as §1, with “conditions. The resin used for Chelex treatment was always fresh and had never been regenerated, ensuring consistent iron removal.” for “conditions.”
as §2

Another data set relates to E. coli lptD4213. Put plainly: MIC, hyperpermeable mutant. Type of data set: cell-based, Escherichia coli. Conditions: lptD4213, MHBCA (+). How it is done: as §1, with “conditions. The resin used for Chelex treatment was always fresh and had never been regenerated, ensuring consistent iron removal.” for “conditions.”
as §2

In the next data set the test system is E. coli PBP3. Also on record: method as in PMID 29061741. Conditions: cited from earlier work.
In data set [3] the test system is CC1(C)S[C@@H]2[C@H](NC(=O)[C@H](N)c3ccccc3)C(=O)N2[C@H]1C(=O)O. Description: purified protein, by the assay type. Type of data set: biochemical, A. baumannii ATCC 19606. Conditions: other: 20 mM NaHCO3 added, NH = no hydrolysis detected, pH 7.0. How it is done:
as §3, §4

Data set [4] has as its system O=C(Cc1cccs1)N[C@@H]1C(=O)N2C(C(=O)O)=C(/C=C/c3ccc([N+](=O)[O-])cc3[N+](=O)[O-])CS[C@H]12. Put plainly: purified protein, by the assay type. Type of data set: biochemical, A. baumannii ATCC 19606. Conditions: other: 20 mM NaHCO3 added, NH = no hydrolysis detected, pH 7.0. How it is done: as §3, §4
Data set [5] deals with CC1(C)S[C@@H]2[C@H](NC(=O)[C@H](N)c3ccccc3)C(=O)N2[C@H]1C(=O)O. Description: purified protein, by the assay type. The conditions noted are these: other: Michaelis–Menten curves, n = 3, 25 °C, pH 7.0.
In data set [6] the test system is O=C(Cc1cccs1)N[C@@H]1C(=O)N2C(C(=O)O)=C(/C=C/c3ccc([N+](=O)[O-])cc3[N+](=O)[O-])CS[C@H]12. Description: purified protein, by the assay type. The conditions noted are these: other: Michaelis–Menten curves, n = 3, 25 °C, pH 7.0.

Chain of AmpC (PDC-5) (P24735 27-397 R79Q/T105A): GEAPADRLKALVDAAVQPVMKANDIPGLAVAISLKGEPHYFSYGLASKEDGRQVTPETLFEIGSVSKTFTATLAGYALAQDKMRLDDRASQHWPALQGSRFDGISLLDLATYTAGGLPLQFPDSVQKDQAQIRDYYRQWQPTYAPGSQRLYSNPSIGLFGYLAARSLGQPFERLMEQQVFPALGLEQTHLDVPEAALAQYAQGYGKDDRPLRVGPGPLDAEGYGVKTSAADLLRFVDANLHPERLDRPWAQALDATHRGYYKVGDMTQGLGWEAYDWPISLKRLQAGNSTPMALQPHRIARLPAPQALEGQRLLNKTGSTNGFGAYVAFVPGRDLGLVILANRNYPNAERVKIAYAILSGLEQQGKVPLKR

For `CC[C@H]1OC(=O)[C@H](C)[C@@H](O[C@H]2C[C@@](C)(OC)[C@@H](O)[C@H](C)O2)[C@H](C)[C@@H](O[C@@H]2O[C@H](C)C[C@H](N(C)C)[C@H]2O)[C@](C)(O)C[C@@H](C)C(=O)[C@H](C)[C@@H](O)[C@]1(C)O` [ERY, erythromycin], the “MIC in combination with PAβN (control antibiotics)” value stood at 16 µg/mL in the data set on E. coli MC4100 (+ 25 µg/mL PAβN) and 32 µg/mL in the data set with P. aeruginosa ATCC 27853. Besides, the minimal inhibitory concentration (MIC) (usually the least concentration at which growth counts as inhibited) with E. coli ΔacrAB (Escherichia coli) worked out at 4 µM (≈ 2.94 µg/mL). For the same molecule, in the data set on E. coli ΔacrAB (deletion of acrAB), the “MIC (control antibiotic)” value amounted to 4 µg/mL (≈ 5.45 µM). The “reduction of MIC by deletion of acrAB” value with E. coli ΔacrAB (versus parent E. coli) is listed as 32 fold.

`C[C@H]1COc2c(N3CCN(C)CC3)c(F)cc3c(=O)c(C(=O)O)cn1c23` [LVX, levofloxacin]: the minimum inhibitory concentration (MIC) in data set [1] was at most 0.06 µM; in data set [1] (read-out: MIC (control drug)), at most 0.06 µg/mL; in data set [2], 16 µM; in data set [2] (read-out: MIC (control drug)) it was 16 µg/mL.

Consider `O=C(Cc1cccs1)N[C@@H]1C(=O)N2C(C(=O)O)=C(/C=C/c3ccc([N+](=O)[O-])cc3[N+](=O)[O-])CS[C@H]12` [NCF, nitrocefin], for which the “AmpC (PDC-5) Vmax” value on AmpC (PDC-5) was 121 ± 3 µmol·mg/min. The Km – broadly, the substrate concentration at which the rate is half of its maximum – at AmpC (PDC-5) (read-out: AmpC (PDC-5) Km, Michaelis–Menten curves) was 103 ± 4 µM.

For the molecule `CO[C@H]1/C=C/O[C@@]2(C)Oc3c(C)c(O)c4c(O)c(c(/C=N/N5CCN(C)CC5)c(O)c4c3C2=O)NC(=O)/C(C)=C\C=C\[C@H](C)[C@H](O)[C@@H](C)[C@@H](O)[C@@H](C)[C@H](OC(C)=O)[C@@H]1C` [RIF, rifampicin, reference compound], the “MIC in combination with PAβN (control antibiotics)” value is listed as at most 0.012 µg/mL with A. baumannii ATCC 19606 (+ 25 µg/mL PAβN) and 2 µg/mL in the data set on P. aeruginosa ATCC 27853. The “MIC (control antibiotics)” value against A. baumannii ATCC 19606 (without PAβN) and against P. aeruginosa ATCC 27853 (without PAβN) was 16 µg/mL (≈ 19.4 µM) in each case.

For the molecule `CN[C@H](CC(C)C)C(=O)N[C@H]1C(=O)N[C@@H](CC(N)=O)C(=O)N[C@H]2C(=O)N[C@H]3C(=O)N[C@H](C(=O)N[C@H](C(=O)O)c4cc(O)cc(O)c4-c4cc3ccc4O)[C@H](O)c3ccc(c(Cl)c3)Oc3cc2cc(c3O[C@@H]2O[C@H](CO)[C@@H](O)[C@H](O)[C@H]2O[C@H]2C[C@](C)(N)[C@H](O)[C@H](C)O2)Oc2ccc(cc2Cl)[C@H]1O` [VAN, vancomycin, reference compound], the “MIC (control antibiotics)” value in the data set on E. coli MC4100 (without PAβN) is reported as over 128 µg/mL. Further, the “MIC (control antibiotic)” value against E. coli lptD4213 is 0.5 µg/mL (≈ 0.345 µM).

As to `CC(C)(O/N=C(\C(=O)N[C@@H]1C(=O)N2C(C(=O)[O-])=C(C[N+]3(CCNC(=O)c4ccc(O)c(O)c4Cl)CCCC3)CS[C@H]12)c1csc(N)n1)C(=O)O` [cefiderocol], the “decrease in the IC50 for E. coli PBP3 compared to ceftazidime” value in the data set on E. coli PBP3 was 11 fold.

With “OXA-98 (Acinetobacter baumannii ATCC 19606 = CIP 70.34 = JCM 6841)”, in data set [3], the Km amounted to 490 ± 12 µM; the kcat (in general, the number of substrate molecules converted per active site and unit of time at saturation) is 22 ± 1 s⁻¹; the kcat/Km (usually the second-order rate constant that governs catalysis at low substrate concentration) worked out at 40000 ± 0 M⁻¹ s⁻¹. In data set [4], the Km is 343 ± 10 µM, the catalytic constant (kcat) is 3.5 ± 0.2 s⁻¹ and the catalytic efficiency (kcat/Km) was determined as 10000 ± 0 M⁻¹ s⁻¹.

As to SHV-1 (Klebsiella pneumoniae), in [5], the Km stood at 164 ± 4 µM, the catalytic constant (kcat) was found to be 1565 ± 42 s⁻¹ and the catalytic efficiency (kcat/Km) worked out at 9.5e+06 ± 300000 M⁻¹ s⁻¹. Further, in data set [6], the Km was found to be 25 ± 3 µM, the turnover number (kcat) was determined as 247 ± 48 s⁻¹ and the kcat/Km came out at 9.8e+06 ± 2.3e+06 M⁻¹ s⁻¹.
